Source: US5086070A, “4-benzyl-1H-indoles and anti-arrthymic use thereof” (Roussel Uclaf, priority 1989, dated 1992)
Where two headings read alike, the source gives them in different places.

Legend:
caudal artery = experiment: Test for anti-calcic activity in vitro, isolated caudal artery of the rat (contraction induced by calcium chloride); assay type: cell-based; settings: caudal artery rings of Wistar rats, depolarizing solution KCl 100 mM, CaCl2 2.5 mM, phentolamine 10^-5 M, 37° C., read-out: IC50 (concentration which inhibited by 50% the contraction induced by calcium chloride)
Protocol: Isolated caudal artery of the rat.
When the contractile responses became reproducible, the test product was added in increasing concentrations 15 minutes before each contraction.

blood-platelets = experiment: Blood-platelet aggregation, in vitro, on plasma rich in blood-platelets (PRP); assay type: cell-based; settings: Oryctolagus cuniculus, 2 min, rabbit PRP, 2 minutes incubation
Description: 3) Test for the Activity of Anti-Aggregation of Blood-Platelets. Blood-Platelet Aggregation, in Vitro, on Plasma Rich in Blood-Platelets (PRP)
Measurement of blood-platelet aggregation was made according to the turbidimetric method of Born et al 1963, J. Physiol., Vol. 168, p. 178. Rabbit's blood was removed on Na citrate at 3.2% of cardiac puncture and the plasma rich in blood-platelets was obtained by centrifuging and adjustment of the number of blood-platelets to […]. The aggregation was induced by collagen (40 micrograms per ml of PRP) or PAF acether (0.05 micromoles per liter of PRP). The test compounds were incubated at different concentrations in the PRP 2 minutes before the aggregating agent. The results are expressed in IC50 (concentration inhibiting the aggregation by 50% relative to the control curves).

[1] = tested on: ventricular extrasystoles; experiment: Anti-arhythmic action in the rat (aconitine-induced ventricular extrasystoles); assay type: in vivo; settings: read-out: Percentage of protection (percentage increase in the aconitine dose necessary to initiate the ventricular extrasystoles); for change in vivo at 1 mg/kg / change in vivo at 5 mg/kg: iv; for change in vivo at 25 mg/kg: po, 1 h
Protocol: Male rats weighing 300-350 g, anaesthetized by intraperitoneal route with 1.20 g/kg of urethane, were tracheotomized and subjectd to artificial respiration (40-50 insufflations of 3 ml/minute). Needles were implanted under the skin to record the electrocardiogram of the rats on reception of the DII signal. The test products were administered intravenously or orally. After five minutes in the case of intravenous administration and one hour in the case of oral administration, the jugular vein of the rats was perfused with 10 micrograms/minutes under 0.21 ml of an aconitine solution and the time taken for the first ventricular extrasystoles to appear was noted. The amount of aconitine perfused was calculated, then expressed as a function of the body weight of the animal.
The percentage increase in the aconitine dose necessary to initiate the ventricular extrasystoles after treatment was calculated relative to the control animals.

mouse = experiment: Acute toxicity, oral, mouse; assay type: in vivo
Protocol: The lethal doses LD0 of the various compounds tested were evaluated after oral administration to a mouse. […]

[2] = PAF acether 0.05 micromoles per liter of PRP, read-out: IC50, induction by PAF ACETHER (concentration inhibiting the aggregation by 50%)
[3] = collagen 40 micrograms per ml of PRP, read-out: IC50, induction by COLLAGEN (concentration inhibiting the aggregation by 50%)

CC(C)(C)NCCCOc1ccc(C(=O)c2cccc3[nH]ccc23)cc1 [Example 1, [4-[3-[(1,1-dimethyl-ethyl)-amino]-propoxy]-phenyl]-(1H-indol-4-yl)-methanone]
IC50 (caudal artery): 460 nM

Cn1ccc2c(C(=O)c3ccccc3OCC(O)CNC(C)(C)C)cccc21 (racemic) [Example 10, (±)[2-[3-[(1,1-dimethylethyl)-amino]-2-hydroxy-propoxy]-phenyl]-(1-methyl-1H-indol-4-yl) methanone]
IC50 (blood-platelets; [2]): 70 µM
IC50 (blood-platelets; [3]): 21 µM
change in vivo at 1 mg/kg [1]: 133%
change in vivo at 25 mg/kg [1]: 124%

CC(C)N(CC(O)COc1ccccc1C(=O)c1cccc2[nH]ccc12)C(C)C (racemic) [Example 18, (±) [2-[3-[[bis-1-methylethyl)-amino]-2-hydroxy-propoxy]-phenyl]-(1H-indol-4-yl) methanone]
IC50 (caudal artery): 7200 nM
change in vivo at 5 mg/kg [1]: 135%

CC(C)(C)NCCCOc1ccccc1C(=O)c1cccc2[nH]ccc12.O=C(O)c1ccccc1 [Example 3, [2-[3-[(1,1-dimethyl ethyl)-amino]-propoxy]-phenyl]-(1H-indol-4-yl)-methanone benzoate]
LD0 (maximum dose which did not cause any deaths over 8 days) (mouse): 100 mg/kg
IC50 (caudal artery): 1900 nM
IC50 (blood-platelets; [2]): 47 µM
IC50 (blood-platelets; [3]): 31 µM
change in vivo at 5 mg/kg [1]: 202%
change in vivo at 25 mg/kg [1]: 52%

CC(C)(C)NCCCOc1ccccc1Cc1cccc2[nH]ccc12 [Example 6, N-(1,1-dimethylethyl)-3-[2-[(1H-indol-4-yl)-methyl]-phenoxy]-propanamine benzoate]
IC50 (caudal artery): 400 nM
IC50 (blood-platelets; [2]): 37 µM
IC50 (blood-platelets; [3]): 14 µM

Cn1ccc2c(C(O)c3ccccc3OCCCNC(C)(C)C)cccc21 (racemic) [Example 13, (±) α-[2-[3-[(1,1-dimethylethyl)-amino]-propoxy]-phenyl-1-methyl-1H-indol-4-methanol]
IC50 (blood-platelets; [2]): 70 µM
IC50 (blood-platelets; [3]): 60 µM
change in vivo at 5 mg/kg [1]: 140%

CC(c1ccccc1OCC(O)CNC(C)(C)C)c1cccc2[nH]ccc12 (racemic) [Example 23, (±) 3-[(1,1-dimethylethyl)-amino]-1-[2-[1-(1H-indol-4-yl)-ethyl]-phenoxy]-2-propanol]
IC50 (caudal artery): 4700 nM
IC50 (blood-platelets; [2]): 25 µM
IC50 (blood-platelets; [3]): 8 µM
change in vivo at 5 mg/kg [1]: 88%

Cn1ccc2c(C(=O)c3ccccc3OCCCNC(C)(C)C)cccc21 [Example 12, [2-[3-[(1,1-dimethylethyl)-amino]-propoxy]-phenyl]-(1-methyl-1H-indol-4-yl)methanone]
IC50 (caudal artery): 4800 nM
IC50 (blood-platelets; [2]): 40 µM
IC50 (blood-platelets; [3]): 40 µM
change in vivo at 1 mg/kg [1]: 99%

CC(C)(C)NCC(O)COc1ccc(C(=O)c2cccc3[nH]ccc23)cc1 (stereo not drawn) [Example 2, [4-[3-[(1,1-dimethyl ethyl)-amino]-2-hydroxypropoxy]-phenyl]-(1H-indol-4-yl)-methanone]
IC50 (caudal artery): 1900 nM
change in vivo at 5 mg/kg [1]: 93%
change in vivo at 25 mg/kg [1]: 82%

C=C(c1ccccc1OCC(O)CNC(C)(C)C)c1cccc2[nH]ccc12 (racemic) [Example 22, (±) 3-[(1,1-dimethylethyl)-amino]-[2-[1-(1H-indol-4-yl)-ethenyl]-phenoxy]-2-propanol]
LD0 (maximum dose which did not cause any deaths over 8 days) (mouse): 200 mg/kg
IC50 (caudal artery): 3800 nM
IC50 (blood-platelets; [2]): 14 µM
IC50 (blood-platelets; [3]): 9 µM
change in vivo at 5 mg/kg [1]: 84%
change in vivo at 25 mg/kg [1]: 33%

CC(C)(C)NCC(O)COc1ccccc1C(O)c1cccc2[nH]ccc12 (single isomer, unassigned; isomer b) [Example 9, α-[2-[3-[(1,1-dimethylethyl)-amino]-2-hydroxy-propoxy]-phenyl]-1H-indole-4-methanol benzoate (Isomer B)]
LD0 (maximum dose which did not cause any deaths over 8 days) (mouse): > 200 mg/kg
change in vivo at 5 mg/kg [1]: > 165%
change in vivo at 25 mg/kg [1]: 91%

CC(C)(C)NCC(O)COc1ccccc1C(=O)c1cccc2[nH]ccc12 (stereo not drawn) [Example 4, [2-[3-[(1,1-dimethyl ethyl)-amino]-2-hydroxypropoxy]-phenyl]-(1H-indol-4-yl)-methanone]
IC50 (caudal artery): 6200 nM
IC50 (blood-platelets; [2]): 55 µM
IC50 (blood-platelets; [3]): 9.5 µM
change in vivo at 5 mg/kg [1]: > 217%
change in vivo at 25 mg/kg [1]: 73%

CC(C)(C)NCCOc1ccccc1C(=O)c1cccc2[nH]ccc12 [Example 16, [2-[2-[(1,1-dimethylethyl)-amino]-ethoxy]-phenyl]-(1H-indol-4-yl)-methanone]
IC50 (caudal artery): 1100 nM
IC50 (blood-platelets; [2]): 100 µM
IC50 (blood-platelets; [3]): 57 µM

CON=C(c1ccccc1OCC(O)CNC(C)(C)C)c1cccc2[nH]ccc12 (racemic) [Example 25, (±) O-methyloxime of [2-[3-[(2,2-dimethylethyl)-amino]-2-hydroxypropoxy]-phenyl]-(1H-indol-4-yl) methanone]
change in vivo at 5 mg/kg [1]: 186%

CC(C)(C)NCC(O)COc1ccccc1Cc1cccc2[nH]ccc12 (stereo not drawn) [Example 5, 1-[(1,1-dimethyl-ethyl)-amino]-3-[2-[(1H-indol-4-yl)-methyl]-phenoxy]-2-propanol]
LD0 (maximum dose which did not cause any deaths over 8 days) (mouse): > 200 mg/kg
IC50 (caudal artery): 2000 nM
IC50 (blood-platelets; [2]): 42 µM
IC50 (blood-platelets; [3]): 18 µM

C=C(c1ccccc1OCCCNC(C)(C)C)c1cccc2[nH]ccc12 [Example 24]
IC50 (caudal artery): 3100 nM
IC50 (blood-platelets; [2]): 14 µM
IC50 (blood-platelets; [3]): 8 µM

CC(C)(C)NCC(O)COc1ccccc1C(O)c1cccc2[nH]ccc12 (single isomer, unassigned) [Example 8, α-[2-[3-[(1,1-dimethylethyl)-amino]-2-hydroxy-propoxy]-phenyl]-1H-indole-4-methanol benzoate]
LD0 (maximum dose which did not cause any deaths over 8 days) (mouse): > 200 mg/kg

Cn1ccc2c(Cc3ccccc3OCC(O)CNC(C)(C)C)cccc21 (racemic) [Example 11, (±) 1-[(1,1-dimethylethyl)-amino]-3-[2-[(1-methyl-1H-indol-4-yl)-methyl]-phenoxy]-2-propanol]
IC50 (caudal artery): 3000 nM
IC50 (blood-platelets; [2]): 24 µM
IC50 (blood-platelets; [3]): 10 µM
change in vivo at 5 mg/kg [1]: 257%
change in vivo at 25 mg/kg [1]: 81%

CC(C)(C)NCC(O)COc1ccccc1C(=O)c1cccc2c1CC(=O)N2 (stereo not drawn) [Example 15, 1,3-dihydro-4-[2-[3-[(1,1-dimethylethyl)-amino]-2-hydroxy-propoxy]-benzoyl]-2H-indol-2-one]
LD0 (maximum dose which did not cause any deaths over 8 days) (mouse): > 200 mg/kg

CC(C)(C)NCCCOc1ccccc1C(O)c1cccc2[nH]ccc12 (stereo not drawn) [Example 7, α-[2-[3-[(1,1-dimethylethyl)-amino]-propoxy]-phenyl]-1H-indol-4-methanol benzoate]
LD0 (maximum dose which did not cause any deaths over 8 days) (mouse): 100 mg/kg
change in vivo at 5 mg/kg [1]: > 201%

O=C(c1ccccc1OCC(O)CNC1CCCCC1)c1cccc2[nH]ccc12 (racemic) [Example 21, (±) [2-[(3-cyclohexylamino)-2-hydroxylpropoxy]-phenyl]-(1H-indol-4-yl) methanone]
change in vivo at 5 mg/kg [1]: 124%

CN1CCN(CC(O)COc2ccccc2C(=O)c2cccc3[nH]ccc23)CC1 (racemic) [Example 19, (±) [2-[2-hydroxy-3-(4-methyl-1-piperazinyl)-propoxy]-phenyl]-(1H-indol-4-yl) methanone]
change in vivo at 5 mg/kg [1]: 142%
